Reference: patent US7795290B2 (Genentech, Inc., priority 2004, dated 2010)

Target: T1, AKT1 (Homo sapiens, UniProt P31749)
T1 construct: purchased Upstate 14-276
Experiment: HTS ATP-utilizing enzyme assay, off-chip mobility-shift (Caliper HTS 250)
Type: biochemical
Conditions: kinase named = inhibitory activity/selectivity; test compound 10 μM; active = greater than three-sigma from mean
Outline: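 AKT1 activity was measured by off-chip mobility shift (Caliper HTS 250) as the ratio of peptide substrate to phosphorylated product. Test compound was at 10 μM, with 2.5 h incubation at 20–22° C. EDTA wells served as 100% control and DMSO wells as 0%. Hits were called at three-sigma limits.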

T1 sequence (P31749 whole entry): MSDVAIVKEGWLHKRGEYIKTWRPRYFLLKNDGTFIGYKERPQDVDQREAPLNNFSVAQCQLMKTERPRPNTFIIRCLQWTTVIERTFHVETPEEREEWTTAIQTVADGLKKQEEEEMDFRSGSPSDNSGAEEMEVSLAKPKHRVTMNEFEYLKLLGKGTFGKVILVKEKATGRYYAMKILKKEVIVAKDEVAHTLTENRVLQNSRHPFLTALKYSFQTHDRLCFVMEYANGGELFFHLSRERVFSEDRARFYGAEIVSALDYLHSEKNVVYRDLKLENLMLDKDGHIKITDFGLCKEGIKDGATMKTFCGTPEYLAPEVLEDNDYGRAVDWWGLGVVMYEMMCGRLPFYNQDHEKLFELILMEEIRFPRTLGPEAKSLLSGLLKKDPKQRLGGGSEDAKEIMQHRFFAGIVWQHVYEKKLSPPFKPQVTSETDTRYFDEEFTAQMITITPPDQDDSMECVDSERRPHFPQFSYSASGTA

Activity, AKT1:
O=C(c1cccs1)N(CCCN1CCC(O)C1)c1nc(-c2cc3ccccc3o2)cs1 (stereo not drawn) [N-(4-(benzofuran-2-yl)thiazol-2-yl)-N-(3-(3-hydroxypyrrolidin-1-yl)propyl)thiophene-2-carboxamide], CN(CCO)C(=O)CCN(C(=O)c1cccs1)c1nc(-c2cc3ccccc3o2)cs1 [N-(4-(benzofuran-2-yl)thiazol-2-yl)-N-(3-((2-hydroxyethyl)(methyl)amino)-3-oxopropyl)thiophene-2-carboxamide], O=C(O)Cc1ccc(-c2csc(N(CCCN3CCOCC3)C(=O)c3cccs3)n2)s1 [2-(5-(2-(N-(3-morpholinopropyl)thiophene-2-carboxamido)thiazol-4-yl)thiophen-2-yl)acetic acid], O=C(CCN(C(=O)c1cccs1)c1nc(-c2cc3ccccc3o2)cs1)N1CCCC(CO)C1 (stereo not drawn) [N-(4-(benzofuran-2-yl)thiazol-2-yl)-N-(3-(3-(hydroxymethyl)piperidin-1-yl)-3-oxopropyl)thiophene-2-carboxamide], CN(C)CCCNC(=O)c1ccc(-c2csc(N(CCCN3CCOCC3)C(=O)c3cccs3)n2)cc1 [N-(4-(4-(3-(dimethylamino)propylcarbamoyl)phenyl)thiazol-2-yl)-N-(3-morpholinopropyl)thiophene-2-carboxamide], O=C(Nc1ccc2ncsc2c1)c1csc(N(CCCN2CCOCC2)C(=O)c2cccs2)n1 [N-(benzo[d]thiazol-6-yl)-2-(N-(3-morpholinopropyl)thiophene-2-carboxamido)thiazole-4-carboxamide], COc1ccc(-c2csc(N(Cc3ccco3)C(=O)c3cccs3)n2)cc1 [N-(furan-2-ylmethyl)-N-(4-(4-methoxyphenyl)thiazol-2-yl)thiophene-2-carboxamide], Cc1ccc(-c2csc(N(CCCN3CCOCC3)C(=O)c3cccs3)n2)c(C)c1 [N-(4-(2,4-dimethylphenyl)thiazol-2-yl)-N-(3-morpholinopropyl)thiophene-2-carboxamide], COc1ccc(-c2csc(N(CCCN3CCOCC3)C(=O)c3cccs3)n2)cn1 [N-(4-(6-methoxypyridin-3-yl)thiazol-2-yl)-N-(3-morpholinopropyl)thiophene-2-carboxamide], COC[C@@H]1CCCN1CCCN(C(=O)c1cccs1)c1nc(-c2cc3ccccc3o2)cs1 [(S)—N-(4-(benzofuran-2-yl)thiazol-2-yl)-N-(3-(2-(methoxymethyl)pyrrolidin-1-yl)propyl)thiophene-2-carboxamide], COc1ccc(-c2csc(N(CCCN3CCOCC3)C(=O)C3CCCC3)n2)cc1OC [N-(4-(3,4-dimethoxyphenyl)thiazol-2-yl)-N-(3-morpholinopropyl)cyclopentanecarboxamide], O=C(c1cccs1)N(CCCN1CCOCC1)c1nc(-c2ccc3c(c2)OCCO3)cs1 [N-(4-(2,3-dihydrobenzo[b][1,4]dioxin-6-yl)thiazol-2-yl)-N-(3-morpholinopropyl)thiophene-2-carboxamide], CN(C)C(=O)[C@@H]1CCCN1CCCN(C(=O)c1cccs1)c1nc(-c2cc3ccccc3o2)cs1 [(S)-1-(3-(N-(4-(benzofuran-2-yl)thiazol-2-yl)thiophene-2-carboxamido)propyl)-N,N-dimethylpyrrolidine-2-carboxamide], COc1ccc(-c2csc(N(CCCN3CCOCC3)C(=O)c3occc3C)n2)cc1 [N-(4-(4-methoxyphenyl)thiazol-2-yl)-3-methyl-N-(3-morpholinopropyl)furan-2-carboxamide], NC(=O)C1CCCN1C(=O)CCCN(C(=O)c1cccs1)c1nc(-c2cc3ccccc3o2)cs1 (stereo not drawn) [1-(4-(N-(4-(benzofuran-2-yl)thiazol-2-yl)thiophene-2-carboxamido)butanoyl)pyrrolidine-2-carboxamide], COc1ccc(OC)c(-c2csc(N(CCCN3CCN(C)CC3)C(=O)c3ccccc3)n2)c1 [N-(4-(2,5-dimethoxyphenyl)thiazol-2-yl)-N-(3-(4-methylpiperazin-1-yl)propyl)benzamide], CCOC(=O)c1cc(-c2csc(N(CCCN3CCOCC3)C(=O)c3cccs3)n2)on1 [ethyl 5-(2-(N-(3-morpholinopropyl)thiophene-2-carboxamido)thiazol-4-yl)isoxazole-3-carboxylate], COc1ccc(OC)c(-c2csc(N(CCCN3CCOCC3)C(=O)c3cccs3)n2)c1 [N-(4-(2,5-dimethoxyphenyl)thiazol-2-yl)-N-(3-morpholinopropyl)thiophene-2-carboxamide], O=C(c1cccs1)N(CCCN1CCOCC1)c1nc(-c2ccc(Cl)c([N+](=O)[O-])c2)cs1 [N-(4-(4-chloro-3-nitrophenyl)thiazol-2-yl)-N-(3-morpholinopropyl)thiophene-2-carboxamide], O=C(c1cccs1)N(CCCN1CCOCC1)c1nc(-c2ccccc2[N+](=O)[O-])cs1 [N-(3-morpholinopropyl)-N-(4-(2-nitrophenyl)thiazol-2-yl)thiophene-2-carboxamide], N#CCCN1CCN(CCCN(C(=O)c2cccs2)c2nc(-c3cc4ccccc4o3)cs2)CC1 [N-(4-(benzofuran-2-yl)thiazol-2-yl)-N-(3-(4-(2-cyanoethyl)piperazin-1-yl)propyl)thiophene-2-carboxamide], O=C(O)COc1ccc(-c2csc(N(CCCN3CCOCC3)C(=O)c3cccs3)n2)cc1 [2-(4-(2-(N-(3-morpholinopropyl)thiophene-2-carboxamido)thiazol-4-yl)phenoxy)acetic acid], O=C1CN(CCCN(C(=O)c2cccs2)c2nc(-c3cc4ccccc4o3)cs2)CCN1 [N-(4-(benzofuran-2-yl)thiazol-2-yl)-N-(3-(3-oxopiperazin-1-yl)propyl)thiophene-2-carboxamide], O=C(CCCN(C(=O)c1cccs1)c1nc(-c2cc3ccccc3o2)cs1)N(CCO)Cc1ccncc1 [N-(4-(benzofuran-2-yl)thiazol-2-yl)-N-(4-((2-hydroxyethyl)(pyridin-4-ylmethyl)amino)-4-oxobutyl)thiophene-2-carboxamide], O=C(CCCN(C(=O)c1cccs1)c1nc(-c2cc3ccccc3o2)cs1)NCc1cccnc1 [N-(4-(benzofuran-2-yl)thiazol-2-yl)-N-(4-oxo-4-(pyridin-3-ylmethylamino)butyl)thiophene-2-carboxamide], CN(C)C(=O)CN1CCN(CCCN(C(=O)c2cccs2)c2nc(-c3cc4ccccc4o3)cs2)CC1 [N-(4-(benzofuran-2-yl)thiazol-2-yl)-N-(3-(4-(2-(dimethylamino)-2-oxoethyl)piperazin-1-yl)propyl)thiophene-2-carboxamide], O=C(c1cccs1)N(CCCN1CCOCC1)c1nc(-c2ccc3c(c2)OCO3)cs1 [N-(4-(benzo[d][1,3]dioxol-5-yl)thiazol-2-yl)-N-(3-morpholinopropyl)thiophene-2-carboxamide], CC(C)(C)OC(=O)[C@@H]1CCCN1CCCN(C(=O)c1cccs1)c1nc(-c2cc3ccccc3o2)cs1 [(S)-tert-butyl 1-(3-(N-(4-(benzofuran-2-yl)thiazol-2-yl)thiophene-2-carboxamido)propyl)pyrrolidine-2-carboxylate], CCOC(=O)N1CCN(CCCN(C(=O)c2cccs2)c2nc(-c3cc4ccccc4o3)cs2)CC1 [ethyl 4-(3-(N-(4-(benzofuran-2-yl)thiazol-2-yl)thiophene-2-carboxamido)propyl)piperazine-1-carboxylate], O=C(c1cccs1)N(CCCN1CCOCC1)c1nc(-c2ccccc2)cs1 [N-(3-morpholinopropyl)-N-(4-phenylthiazol-2-yl)thiophene-2-carboxamide], O=C(CCN(C(=O)c1cccs1)c1nc(-c2cc3ccccc3o2)cs1)N1Cc2ccccc2C1 [N-(4-(benzofuran-2-yl)thiazol-2-yl)-N-(3-(isoindolin-2-yl)-3-oxopropyl)thiophene-2-carboxamide], CCOC(=O)CC1CCN(C(=O)CCCN(C(=O)c2cccs2)c2nc(-c3cc4ccccc4o3)cs2)CC1 [ethyl 2-(1-(4-(N-(4-(benzofuran-2-yl)thiazol-2-yl)thiophene-2-carboxamido)butanoyl)piperidin-4-yl)acetate], Cn1cccc1C(=O)N(CCCN1CCCC1=O)c1nc(-c2cc3ccccc3o2)cs1 [N-(4-(benzofuran-2-yl)thiazol-2-yl)-1-methyl-N-(3-(2-oxopyrrolidin-1-yl)propyl)-1H-pyrrole-2-carboxamide], O=C(c1cccs1)N(CCCC(=O)N(CCCCO)C1CCCCC1)c1nc(-c2cc3ccccc3o2)cs1 [N-(4-(benzofuran-2-yl)thiazol-2-yl)-N-(4-(cyclohexyl(4-hydroxybutyl)amino)-4-oxobutyl)thiophene-2-carboxamide], O=C(c1cccs1)N(CCCCCN1CCOCC1)c1nc(-c2cc3ccccc3o2)cs1 [N-(4-(benzofuran-2-yl)thiazol-2-yl)-N-(5-morpholinopentyl)thiophene-2-carboxamide], COc1ccc(-c2csc(N(CCCN3CCCC3)C(=O)c3ccco3)n2)cc1 [N-(4-(4-methoxyphenyl)thiazol-2-yl)-N-(3-(pyrrolidin-1-yl)propyl)furan-2-carboxamide]
